Laboratory results: US7078403B1, “Antiviral agents” (Biota Scientific Management Pty Ltd., priority 1999, dated 2006)

Key:
[1] = test system: HRV type 1A; experiment: Inhibition of viral cytopathic effect (CPE), visual scoring or neutral red, HRV type 1A in MRC-5 cells; type: cell-based, human rhinovirus; details: for Activity on Rhinovirus Type 1A EC50: HRV type 1A in MRC-5 cells, CPE inhibition; for Activity on Rhinovirus Type 1A SI: selectivity index = CC50 or MTC divided by EC50, HRV type 1A, MRC-5 cells
[2] = test system: HRV type 2; experiment: Inhibition of viral cytopathic effect (CPE), visual scoring or neutral red, HRV type 2 in KB cells; type: cell-based, human rhinovirus; details: for Activity on Rhinovirus Type 2 EC50: HRV type 2 in KB cells, CPE inhibition; for Activity on Rhinovirus Type 2 SI: selectivity index = CC50 or MTC divided by EC50, HRV type 2, KB cells
[3] = test system: human embryo lung (MRC-5) cells; experiment: Cytotoxicity (CC50 or MTC) in uninfected MRC-5 cells; details: unit not given

| SMILES | Activity on Rhinovirus Type 1A EC50 [1] [µg/mL] | Activity on Rhinovirus Type 1A SI [1] | Activity on Rhinovirus Type 2 EC50 [2] [µg/mL] | Activity on Rhinovirus Type 2 SI [2] | Activity on Rhinovirus Type 1A MTC [3] |
| --- | --- | --- | --- | --- | --- |
| CCON=Cc1ccc(OCCC2CCN(c3ccc(Cl)nn3)CC2)cc1O [Compound 37] | 0.010 | >96.0 | 0.048 | >21 | >1 |
| CCON=Cc1ccc(OCCC2CCN(c3ccc(Cl)nn3)CC2)c([N+](=O)[O-])c1 [Compound 36] | 0.009 | 99.4 | 0.03 | >33 | 0.89 |
| CCON=Cc1ccc(OCCCC2CCN(c3ccc(Cl)nn3)CC2)cc1 [Compound 32] | 0.222 | >4.5 | 0.014 | >70 | >1 |
| CCON=Cc1cccc(OCCC2CCN(c3ccc(Cl)nn3)CC2)c1 [Compound 41] | 0.016 | >63.5 | <0.001 | >1000 | >1 |
| CON=Cc1ccc(OC)c(OCCC2CCN(c3ccc(Cl)nn3)CC2)c1 [Compound 17] | 0.00612 | >163.2 | >1 |  | >1 |
| CON=C(C)c1ccc(OCCC2CCN(c3ccc(C)nn3)CC2)cc1 [Compound 9] | <0.0032 | >312 | 0.08 | >13 | >1 |
| CCON=Cc1ccc(OCCC2CCN(c3ccc(OC)nn3)CC2)cc1 [Compound 26] | 0.077 | >13.0 | 0.16 | >6 | >1 |
| CCOCCOCCON=Cc1ccc(OCCC2CCN(c3ccc(Cl)nn3)CC2)cc1 [Compound 20] | 3.28 | >15.24 | 3 | 1 | >50.00 |
| CCON=Cc1ccc(OCCCc2cc(C)no2)cc1 [Compound 108] | >1 |  | 0.6 | >1 | >1 |
| CCON=C(CC)c1ccc(OCCC2CCN(c3ccc(Cl)nn3)CC2)cc1 [Compound 34] | 0.627 | >1.59 | 0.7 | >1 | >1 |
| CCON=Cc1ccc(OCCN2CCN(c3ccc(Cl)nn3)CC2)cc1 [Compound 27] | 0.017 | >59.6 | 0.1 | >10 | >1 |
| C=CCON=Cc1ccc(OCCC2CCN(c3ccc(Cl)nn3)CC2)c(C)c1 [Compound 43] | 0.006 | >170 | 0.01 | >100 | >1 |
| CCON=Cc1cccc(OCCCC2CCN(c3ccc(C)nn3)CC2)c1 [Compound 98] | 0.255 | >3 |  |  | >1 |
| CCON=Cc1ccc(OC2CCN(c3ccc(Cl)nn3)CC2)cc1 [Compound 55] | 2.68 | >3 |  |  | >10 |
| CON=Cc1ccc(OCCN2CCN(c3ccc(Cl)nn3)CC2)cc1 [Compound 73] | 0.003 | >312 |  |  | >1 |
| CON=Cc1cccc(OCCN2CCN(c3ccc(C)nn3)CC2)c1 [Compound 70] | 0.05 | >16 |  |  | >1 |
| C=CCON=Cc1cccc(OCCCC2CCN(c3ccc(C)nn3)CC2)c1 [Compound 99] | 0.205 | >4 |  |  | >1 |
| CON=Cc1cccc(OCCC2CCN(c3ccc(C)nn3)CC2)c1 [Compound 48] | 0.016 | >62 |  |  | >1 |
| CCCON=Cc1ccc(OCCC2CCN(c3ccc(C)nn3)CC2)c(C)c1 [Compound 54] | 0.007 | 91 |  |  | 0.663 |
| CON=Cc1cccc(OCCCC2CCN(c3ccc(Cl)nn3)CC2)c1 [Compound 91] | 0.02 | >46 |  |  | >1 |
| CCON=Cc1ccc(OCCC2CCCN(c3ccc(Cl)nn3)C2)cc1 (stereo not shown) [Compound 142] | 0.055 | >18 |  |  | >1 |

| SMILES | Activity on Rhinovirus Type 1A EC50 [1] [µg/mL] | Activity on Rhinovirus Type 1A SI [1] | Activity on Rhinovirus Type 2 EC50 [2] [µg/mL] | Activity on Rhinovirus Type 2 SI [2] | Activity on Rhinovirus Type 1A MTC [3] |
| --- | --- | --- | --- | --- | --- |
| CCON=Cc1ccc(OCCC2CCN(c3cccnn3)CC2)cc1 [Compound 49] | 0.056 | >17.8 |  |  | >1 |
| CCO/N=C/c1ccc(OCCCCCNc2ccc(Cl)nn2)cc1 [Compound 147] | 0.194 | >5 |  |  | >1 |
| CON=C(C)c1cc(C)c(OCCCc2cc(C)no2)c(C)c1 [Compound 109] | 0.053 | >18.8 |  |  | >1 |
| CCON=Cc1cccc(OCCC2CCN(c3ccc(C)nn3)CC2)c1 [Compound 46] | 0.062 | >16.0 |  |  | >1 |
| Cc1cc(CCCOc2c(C)cc(C=NOCC(F)(F)F)cc2C)on1 [Compound 124] | 0.719 | >1 |  |  | >1 |
| CON=Cc1cccc(OCCCC2CCN(c3cccnn3)CC2)c1 [Compound 105] | 0.126 | >8 |  |  | >1 |
| Cc1ccc(N2CCC(CCOc3ccc(C=NOCC(F)(F)F)cc3)CC2)nn1 [Compound 59] | 0.162 | 3.4 |  |  | 0.56 |
| CCCON=Cc1ccc(OCCC2CCN(c3ccc(C)nn3)CC2)cc1 [Compound 85] | 0.08 | >12 |  |  | >1 |
| CCON=Cc1cccc(OCCN2CCN(c3ccc(Cl)nn3)CC2)c1 [Compound 76] | 0.01 | >98 |  |  | >1 |
| Cc1ccc(N2CCC(CCOc3ccc(C=NOCCF)cc3)CC2)nn1 [Compound 143] | 0.020 | >50 |  |  | >1 |
| CCON=Cc1ccc(OCCCC2CCN(c3cccnn3)CC2)cc1 [Compound 103] | 0.266 | >3 |  |  | >1 |
| CCON=Cc1ccc(OCCN2CCN(c3cccnn3)CC2)cc1 [Compound 64] | 0.05 | >17 |  |  | >1 |
| C=CCON=Cc1ccc(OCC2CCN(c3ccc(Cl)nn3)CC2)cc1 [Compound 30] | 0.036 | >28 |  |  | >1 |
| CCON=Cc1cccc(OCCN2CCN(c3ccc(C)nn3)CC2)c1 [Compound 71] | 0.05 | >18 |  |  | >1 |
| CCO/N=C/c1ccc(OCCC2CCN(c3cnc4cc(Cl)ccc4n3)CC2)cc1 [Compound 210] | 3.96 | >2.5 |  |  | >10 |
| C#CCON=Cc1ccc(OCCC2CCN(c3ccc(C)nn3)CC2)cc1 [Compound 88] | 0.005 | >172 |  |  | >1 |
| C=CCON=Cc1ccc(OCCC2CCN(c3ccc(OC)nn3)CC2)cc1 [Compound 63] | 0.06 | >15 |  |  | >1 |
| CCON=Cc1ccc(OCCN2CCN(c3ccc(C)nn3)CC2)cc1 [Compound 68] | 0.04 | >25 |  |  | >1 |
| CCCc1cc(CCCCOc2c(C)cc(C=NOCC)cc2C)on1 [Compound 139] | 0.19 | >5 |  |  | >1 |
| CCCON=Cc1cccc(OCCN2CCN(c3ccc(C)nn3)CC2)c1 [Compound 136] | 0.598 | >1 |  |  | >1 |
| CCON=Cc1ccc(OCCCC2CCN(c3ccc(C)nn3)CC2)cc1 [Compound 95] | 0.30 | >3 |  |  | >1 |
